Experimental findings from US11957759B1, “Rapidly accelerated fibrosarcoma (RAF) degrading compounds and associated methods of use” (Arvinas Operations, Inc., priority 2022, dated 2024) are described below.

Each structure is given as a SMILES string.

The target of one test is T1, B-RAF V600E (Homo sapiens, UniProt P15056, V600E).
T1 construct: expressed in transfected cells; host or cells: T-Rex 293 cells (Invitrogen #R71007)
The experiment in a line: Target protein degradation, assay C: T-Rex 293 cells, HA-BRAF_V600E, 384 well format. It is filed as cell-based. To be noted: T-Rex 293 HA-BRAF_V600E cells, 24 hours, Examples 83-269; for DC50: Assay C; for Dmax: T-REx-293, Assay C. The method in brief:
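After 24 h exposure to an 11-point 1:3 series (300 nM–5 pM, 0.5% DMSO), fixed T-Rex 293 cells carrying HA-BRAF V600E (induced with 1 ng/mL doxycycline) were stained anti-HA and imaged. DC50 and Dmax were derived from BRAF intensity relative to control, and cytotoxicity from nuclear counts.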

In the next test the target is T2, B-RAF G466V (Homo sapiens, UniProt P15056, G466V).
T2 construct: expressed in transfected cells; host or cells: T-Rex 293 cells (Invitrogen #R71007)
Put plainly: Target protein degradation, assay D: T-Rex 293 cells, HA-BRAF_G466V, 384 well format. It is filed as cell-based. To be noted: T-Rex 293 HA-BRAF_G466V cells, 24 hours, Examples 83-269; for Dmax: T-REx-293, Assay D. The essentials:
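Degradation measured by high-content imaging of anti-HA immunofluorescence in fixed T-Rex 293 cells carrying inducible HA-BRAF G466V (1 ng/mL doxycycline), after 24 h PROTAC exposure at 37 °C over 300 nM–5 pM (1:3, 11 points, 0.5% DMSO). Outputs DC50 and Dmax as % of control; nuclei counts against DMSO wells gauge toxicity.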

T1 sequence (P15056 whole entry V600E): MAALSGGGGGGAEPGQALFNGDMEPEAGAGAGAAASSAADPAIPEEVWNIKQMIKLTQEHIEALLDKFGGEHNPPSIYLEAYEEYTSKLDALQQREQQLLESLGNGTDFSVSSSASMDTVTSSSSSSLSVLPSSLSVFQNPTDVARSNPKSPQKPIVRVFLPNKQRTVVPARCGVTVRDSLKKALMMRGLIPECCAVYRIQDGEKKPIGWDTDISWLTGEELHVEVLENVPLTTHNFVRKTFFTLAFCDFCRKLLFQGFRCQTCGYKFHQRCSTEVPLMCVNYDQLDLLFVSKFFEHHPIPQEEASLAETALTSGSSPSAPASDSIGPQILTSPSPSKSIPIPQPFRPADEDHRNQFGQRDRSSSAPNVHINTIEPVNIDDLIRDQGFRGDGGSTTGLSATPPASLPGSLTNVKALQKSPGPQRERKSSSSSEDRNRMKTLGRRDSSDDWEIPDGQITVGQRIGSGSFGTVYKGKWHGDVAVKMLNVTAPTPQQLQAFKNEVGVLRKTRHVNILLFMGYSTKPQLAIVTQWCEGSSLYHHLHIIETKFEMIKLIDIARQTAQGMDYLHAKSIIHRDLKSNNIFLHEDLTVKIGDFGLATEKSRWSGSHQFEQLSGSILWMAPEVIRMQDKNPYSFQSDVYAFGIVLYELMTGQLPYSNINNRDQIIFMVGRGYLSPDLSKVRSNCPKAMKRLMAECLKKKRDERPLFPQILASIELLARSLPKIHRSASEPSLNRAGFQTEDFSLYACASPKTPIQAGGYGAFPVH
T2 sequence (P15056 whole entry G466V): as the sequence (P15056 whole entry V600E) above, with G466V, E600V counted along it

Usually DC50 stands for the concentration giving 50% degradation. For `CN(CC1CCN(c2ccc(-n3cnc4ccc(Oc5c(F)ccc(NS(=O)(=O)N6CC[C@@H](F)C6)c5C#N)cc4c3=O)cn2)CC1)[C@H]1C[C@H](Oc2ccc3c(c2)C(=O)N([C@@H]2CCC(=O)NC2=O)C3=O)C1` [Example 166, (3R)-N-{2-cyano-4-fluoro-3-[(3-{6-[4-({methyl[(1r,3r)-3-{[2-(2,6-dioxopiperidin-3-yl)-1,3-dioxo-2,3-dihydro-1H-isoindol-5-yl]oxy}cyclobutyl]amino}methyl)piperidin-1-yl]pyridin-3-yl}-4-oxo-3,4-dihydroquinazolin-6-yl)oxy]phenyl}-3-fluoropyrrolidine-1-sulfonamide], the half-maximal degradation concentration (DC50) at B-RAF V600E is greater than 500 nM. On B-RAF G466V (Assay D), the “B-RAF G466V DMax (%)” value was “C (C ≤ 35)” and the half-maximal degradation concentration (DC50) lay within 1 to 10 nM.
The term Dmax denotes the greatest extent of degradation seen. The low end stands for a partial loss of target, the high end for a fuller loss of target. Regarding `N#Cc1c(NS(=O)(=O)N2CC[C@@H](F)C2)ccc(F)c1Oc1ccc2ncn(-c3ccc(N4CCC(CCCN5CCN(c6ccc7c(c6)C(=O)N(C6CCC(=O)NC6=O)C7=O)CC5)CC4)nc3)c(=O)c2c1` (stereo partly drawn) [Example 167, (3R)-N-{2-cyano-3-[(3-{6-[4-(3-{4-[2-(2,6-dioxopiperidin-3-yl)-1,3-dioxo-2,3-dihydro-1H-isoindol-5-yl]piperazin-1-yl}propyl)piperidin-1-yl]pyridin-3-yl}-4-oxo-3,4-dihydroquinazolin-6-yl)oxy]-4-fluorophenyl}-3-fluoropyrrolidine-1-sulfonamide], the 50% degradation concentration (DC50) on B-RAF V600E is 50 to 500 nM; at B-RAF G466V (Assay D) it was 1 to 10 nM. The results for the greatest degradation seen (Dmax) at B-RAF V600E and on B-RAF G466V were 35 to 70% and no more than 35%, respectively.
The corresponding values for `N#Cc1c(NS(=O)(=O)N2CC[C@@H](F)C2)ccc(F)c1Oc1ccc2ncn(-c3ccc(N4CCN(c5cc(N6CCN(c7ccc8c(c7)C(=O)N(C7CCC(=O)NC7=O)C8=O)CC6)ncn5)CC4)nc3)c(=O)c2c1` (stereo partly drawn) [Example 168, (3R)-N-{2-cyano-3-[(3-(6-[4-(6-{4-[2-(2,6-dioxopiperidin-3-yl)-1,3-dioxo-2,3-dihydro-1H-isoindol-5-yl]piperazin-1-yl}pyrimidin-4-yl)piperazin-1-yl]pyridin-3-yl}-4-oxo-3,4-dihydroquinazolin-6-yl)oxy]-4-fluorophenyl}-3-fluoropyrrolidine-1-sulfonamide] are 50 to 500 nM, 10 to 30 nM, no more than 35% and 35 to 70%.
The corresponding values for `N#Cc1c(NS(=O)(=O)N2CC[C@@H](F)C2)ccc(F)c1Oc1ccc2ncn(-c3ccc(N4CCC(CN5CCC6(CC5)CN(c5cccc7c5CN(C5CCC(=O)NC5=O)C7=O)C6)CC4)nc3)c(=O)c2c1` (stereo partly drawn) [Example 169, (3R)-N-{2-cyano-3-[(3-{6-[4-({2-[2-(2,6-dioxopiperidin-3-yl)-1-oxo-2,3-dihydro-1H-isoindol-4-yl]-2,7-diazaspiro[3.5]nonan-7-yl}methyl)piperidin-1-yl]pyridin-3-yl}-4-oxo-3,4-dihydroquinazolin-6-yl)oxy]-4-fluorophenyl}-3-fluoropyrrolidine-1-sulfonamide] are 50 to 500 nM, 1 to 10 nM, 35 to 70% and no more than 35%.
With `N#Cc1c(NS(=O)(=O)N2CC[C@@H](F)C2)ccc(F)c1Oc1ccc2ncn(-c3ccc(N4CC(CN5CCN(C6CCN(c7ccc8c(c7)C(=O)N(C7CCC(=O)NC7=O)C8=O)CC6)CC5)C4)nc3)c(=O)c2c1` (stereo partly drawn) [Example 170, (3R)-N-(2-cyano-3-{[3-(6-{3-[(4-{1-[2-(2,6-dioxopiperidin-3-yl)-1,3-dioxo-2,3-dihydro-1H-isoindol-5-yl]piperidin-4-yl}piperazin-1-yl)methyl]azetidin-1-yl}pyridin-3-yl)-4-oxo-3,4-dihydroquinazolin-6-yl]oxy}-4-fluorophenyl)-3-fluoropyrrolidine-1-sulfonamide], the half-maximal degradation concentration (DC50) at B-RAF V600E fell in the range of 5 to 50 nM; on B-RAF G466V (Assay D) it was 1 to 10 nM. Moreover, the Dmax at B-RAF V600E and at B-RAF G466V was no more than 35% in each case.
Regarding `N#Cc1c(NS(=O)(=O)N2CC[C@@H](F)C2)ccc(F)c1Oc1ccc2ncn(-c3ccc(N4CCC(CN5CC6(C5)CN(c5ccc7c(c5)C(=O)N(C5CCC(=O)NC5=O)C7=O)C6)CC4)nc3)c(=O)c2c1` (stereo partly drawn) [Example 171, (3R)-N-{2-cyano-3-[(3-{6-[4-({6-[2-(2,6-dioxopiperidin-3-yl)-1,3-dioxo-2,3-dihydro-1H-isoindol-5-yl]-2,6-diazaspiro[3.3]heptan-2-yl}methyl)piperidin-1-yl]pyridin-3-yl}-4-oxo-3,4-dihydroquinazolin-6-yl)oxy]-4-fluorophenyl}-3-fluoropyrrolidine-1-sulfonamide], the DC50 was in the range of 50 to 500 nM on B-RAF V600E and 1 to 10 nM at B-RAF G466V (Assay D). For the same molecule, the Dmax on B-RAF V600E and on B-RAF G466V was 35 to 70% in each case.
Turning to `N#Cc1c(NS(=O)(=O)N2CC[C@@H](F)C2)ccc(F)c1Oc1ccc2ncn(-c3ccc(N4CC5(CN(CC6CCN(c7ccc8c(c7)C(=O)N(C7CCC(=O)NC7=O)C8=O)CC6)C5)C4)nc3)c(=O)c2c1` (stereo partly drawn) [Example 172, (3R)-N-{2-cyano-3-[(3-{6-[6-({1-[2-(2,6-dioxopiperidin-3-yl)-1,3-dioxo-2,3-dihydro-1H-isoindol-5-yl]piperidin-4-yl}methyl)-2,6-diazaspiro[3.3]heptan-2-yl]pyridin-3-yl}-4-oxo-3,4-dihydroquinazolin-6-yl)oxy]-4-fluorophenyl}-3-fluoropyrrolidine-1-sulfonamide], the figures for the DC50 on B-RAF V600E and at B-RAF G466V (Assay D) were 50 to 500 nM and 1 to 10 nM, respectively. Further, the maximal degradation (Dmax) at B-RAF V600E and at B-RAF G466V was no more than 35% in each case.
Take `N#Cc1c(NS(=O)(=O)N2CC[C@@H](F)C2)ccc(F)c1Oc1ccc2ncn(-c3ccc(N4CCC(CN5CC6(C5)CN(c5cccc7c5C(=O)N(C5CCC(=O)NC5=O)C7=O)C6)CC4)nc3)c(=O)c2c1` (stereo partly drawn) [Example 173, (3R)-N-{2-cyano-3-[(3-{6-[4-({6-[2-(2,6-dioxopiperidin-3-yl)-1,3-dioxo-2,3-dihydro-1H-isoindol-4-yl]-2,6-diazaspiro[3.3]heptan-2-yl}methyl)piperidin-1-yl]pyridin-3-yl}-4-oxo-3,4-dihydroquinazolin-6-yl)oxy]-4-fluorophenyl}-3-fluoropyrrolidine-1-sulfonamide]: the half-maximal degradation concentration (DC50) on B-RAF V600E was 50 to 500 nM; at B-RAF G466V (Assay D), greater than 30 nM. The molecule also yielded a Dmax on B-RAF V600E of 35 to 70%.
Take `N#Cc1c(NS(=O)(=O)N2CC[C@@H](F)C2)ccc(F)c1Oc1ccc2ncn(-c3ccc(N4CC5(CN(CC6CCN(c7cccc8c7C(=O)N(C7CCC(=O)NC7=O)C8=O)CC6)C5)C4)nc3)c(=O)c2c1` (stereo partly drawn) [Example 174, (3R)-N-{2-cyano-3-[(3-{6-[6-({1-[2-(2,6-dioxopiperidin-3-yl)-1,3-dioxo-2,3-dihydro-1H-isoindol-4-yl]piperidin-4-yl}methyl)-2,6-diazaspiro[3.3]heptan-2-yl]pyridin-3-yl}-4-oxo-3,4-dihydroquinazolin-6-yl)oxy]-4-fluorophenyl}-3-fluoropyrrolidine-1-sulfonamide]: the half-maximal degradation concentration (DC50) at B-RAF V600E fell in the range of 50 to 500 nM; on B-RAF G466V (Assay D) it was 1 to 10 nM. The figures for the Dmax on B-RAF V600E and at B-RAF G466V were 35 to 70% and no more than 35%, respectively.
The corresponding values for `N#Cc1c(NS(=O)(=O)N2CC[C@@H](F)C2)ccc(F)c1Oc1ccc2ncn(-c3cnc(N4CCN(CCN5CCN(c6ccc(C7CCC(=O)NC7=O)cc6F)CC5)CC4)nc3)c(=O)c2c1` (stereo partly drawn) [Example 175, (3R)-N-{2-cyano-3-[(3-{2-[4-(2-{4-[4-(2,6-dioxopiperidin-3-yl)-2-fluorophenyl]piperazin-1-yl}ethyl)piperazin-1-yl]pyrimidin-5-yl}-4-oxo-3,4-dihydroquinazolin-6-yl)oxy]-4-fluorophenyl}-3-fluoropyrrolidine-1-sulfonamide] are 5 to 50 nM, 1 to 10 nM, 35 to 70% and 35 to 70%.
Consider `N#Cc1c(NS(=O)(=O)N2CC[C@@H](F)C2)ccc(F)c1Oc1ccc2ncn(-c3ccc(N4CCN(CCN5CCC(c6ccc7c(c6)CN(C6CCC(=O)NC6=O)C7=O)CC5)CC4)cc3)c(=O)c2c1` (stereo partly drawn) [Example 176, (3R)—N-{2-cyano-3-[(3-{4-[4-(2-{4-[2-(2,6-dioxopiperidin-3-yl)-1-oxo-2,3-dihydro-1H-isoindol-5-yl]piperidin-1-yl}ethyl)piperazin-1-yl]phenyl}-4-oxo-3,4-dihydroquinazolin-6-yl)oxy]-4-fluorophenyl}-3-fluoropyrrolidine-1-sulfonamide], for which the DC50 on B-RAF V600E is 50 to 500 nM; on B-RAF G466V (Assay D), 1 to 10 nM. For the same molecule, the greatest degradation seen (Dmax) on B-RAF V600E and on B-RAF G466V was 35 to 70% throughout.
For `O=C1CCC(N2Cc3cc(N4CCC(CN5CCN(c6ccc(-n7cnc8ccc(Oc9c(F)ccc(NS(=O)(=O)N%10CC[C@@H](F)C%10)c9F)cc8c7=O)cc6)CC5)CC4)ccc3C2=O)C(=O)N1` (stereo partly drawn) [Example 177, (3R)—N-{3-[(3-{4-[4-({1-[2-(2,6-dioxopiperidin-3-yl)-1-oxo-2,3-dihydro-1H-isoindol-5-yl]piperidin-4-yl}methyl)piperazin-1-yl]phenyl}-4-oxo-3,4-dihydroquinazolin-6-yl)oxy]-2,4-difluorophenyl}-3-fluoropyrrolidine-1-sulfonamide], the half-maximal degradation concentration (DC50) was 5 to 50 nM on B-RAF V600E and 1 to 10 nM at B-RAF G466V (Assay D). Besides, the maximal degradation (Dmax) on B-RAF V600E and on B-RAF G466V was 35 to 70% in each case.
